Experiments:
HEK-293 cells = test: HEK-293 cytotoxicity detection (CellTiter-Glo); type: cell-based; details: Homo sapiens, 72 h, 72 h incubation, CellTiter-Glo luminescence, read-out: HEK293
In short: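 HEK-293 cells exposed 72 h to 8 compounds doses (4-fold dilutions, top stock 5 mM at 500×) in 0.2% DMSO. Viability by CellTiter-Glo luminescence; inhibition normalised to DMSO high control and low control, IC50 from four-parameter curve fit.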

BTK = BTK (Homo sapiens, UniProt Q06187); test: BTK cell degradation in TMD-8 cells, HTRF assay; type: cell-based; parameters: endogenous in cells; host or cells: TMD-8 cells; details: 6 h treatment, IC50 (DC50) of BTK degradation
BTK, sequence (Q06187 whole entry): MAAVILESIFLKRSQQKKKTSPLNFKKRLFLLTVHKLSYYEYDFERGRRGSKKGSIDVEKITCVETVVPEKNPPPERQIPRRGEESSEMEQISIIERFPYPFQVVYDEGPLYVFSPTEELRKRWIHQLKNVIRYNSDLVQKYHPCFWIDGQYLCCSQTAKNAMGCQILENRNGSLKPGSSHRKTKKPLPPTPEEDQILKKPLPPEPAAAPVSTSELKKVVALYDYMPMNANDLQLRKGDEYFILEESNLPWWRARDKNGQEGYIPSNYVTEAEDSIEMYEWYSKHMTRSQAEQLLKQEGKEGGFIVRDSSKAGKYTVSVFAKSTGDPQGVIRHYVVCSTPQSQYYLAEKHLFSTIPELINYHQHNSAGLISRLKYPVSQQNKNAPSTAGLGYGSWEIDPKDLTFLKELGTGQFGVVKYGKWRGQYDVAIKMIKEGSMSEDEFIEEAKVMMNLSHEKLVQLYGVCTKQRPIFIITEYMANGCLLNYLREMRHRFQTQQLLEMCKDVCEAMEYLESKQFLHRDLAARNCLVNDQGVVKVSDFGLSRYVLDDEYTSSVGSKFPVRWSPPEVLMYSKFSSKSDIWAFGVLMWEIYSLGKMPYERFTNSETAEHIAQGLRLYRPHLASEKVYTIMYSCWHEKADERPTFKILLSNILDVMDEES
In short: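 BTK levels read by HTRF in lysates of TMD-8 cells exposed to compounds for 6 h, eight concentrations at 6-fold steps in 0.2% DMSO. Percent degradation versus DMSO and low controls was fitted with a four-parameter equation to give DC50; Dmax is maximal degradation.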

| SMILES | IC50 (HEK-293 cells) | DC50 (BTK) |
| --- | --- | --- |
| Cc1cccc(NC(=O)c2ccc(-c3nn4c(c3C(N)=O)Nc3ccc(N5CCN(C(=O)Cc6cccc(N7CCC(=O)NC7=O)c6)CC5)cc3CC4)c(F)c2C)n1 [Example B75, 7-(4-(2-(3-(2,4-dioxotetrahydropyrimidin-1(2H)-yl)phenyl)acetyl)piperazin-1-yl)-2-(2-fluoro-3-methyl-4-((6-methylpyridin-2-yl)carbamoyl)phenyl)-9,10-dihydro-4H-benzo[d]pyrazolo[1,5-a][1,3]diazepine-3-carboxamide] | > 10000 nM | 30.1 nM |
| Cc1cccc(NC(=O)c2ccc(-c3nn4c(c3C(N)=O)Nc3ccc(N5CCN(CC6CN(c7ccc(N8CCC(=O)NC8=O)cc7)C6)CC5)cc3CC4)c(F)c2C)n1 [Example B59, 7-(4-((1-(4-(2,4-dioxotetrahydropyrimidin-1(2H)-yl)phenyl)azetidin-3-yl)methyl)piperazin-1-yl)-2-(2-fluoro-3-methyl-4-((6-methylpyridin-2-yl)carbamoyl)phenyl)-9,10-dihydro-4H-benzo[d]pyrazolo[1,5-a][1,3]diazepine-3-carboxamide] | > 10000 nM | 1.47 nM |
| COc1ccc2ccccc2c1C(=O)NCc1ccc(-c2nn3c(c2C(N)=O)Nc2ccc(N4CCN(CC5CCN(c6ccc(N7CCC(=O)NC7=O)cc6)CC5)CC4)cc2CC3)cc1F [Example C20, 7-(4-((1-(4-(2,4-dioxotetrahydropyrimidin-1(2H)-yl)phenyl)piperidin-4-yl)methyl)piperazin-1-yl)-2-(3-fluoro-4-((2-methoxy-1-naphthamido)methyl)phenyl)-9,10-dihydro-4H-benzo[d]pyrazolo[1,5-a][1,3]diazepine-3-carboxamide] | > 10000 nM | 0.956 nM |
| Cc1c(C(=O)Nc2cscn2)ccc(-c2nn3c(c2C(N)=O)Nc2ccc(N4CCN(C5CC(c6ccc(N[C@H]7CCC(=O)NC7=O)cc6)C5)CC4)cc2CC3)c1F (stereo partly drawn) [Example B101, (S)-7-(4-(3-(4-((2,6-dioxopiperidin-3-yl)amino)phenyl)cyclobutyl)piperazin-1-yl)-2-(2-fluoro-3-methyl-4-(thiazol-4-ylcarbamoyl)phenyl)-9,10-dihydro-4H-benzo[d]pyrazolo[1,5-a][1,3]diazepine-3-carboxamide] | 32.3 nM | 2.42 nM |
| NC(=O)c1c(-c2ccc(C(=O)Nc3ccc(C(F)(F)F)cn3)cc2)nn2c1Nc1ccc(N3CCN(CC4CCN(c5ccc(N6CCC(=O)NC6=O)cc5)CC4)CC3)cc1CC2 [Example B17, 7-(4-((1-(4-(2,4-dioxotetrahydropyrimidin-1(2H)-yl)phenyl)piperidin-4-yl)methyl)piperazin-1-yl)-2-(4-((5-(trifluoromethyl)pyridin-2-yl)carbamoyl)phenyl)-9,10-dihydro-4H-benzo[d]pyrazolo[1,5-a][1,3]diazepine-3-carboxamide] | > 10000 nM | 2.19 nM |
| Cc1c(C(=O)Nc2ncn(C)n2)ccc(-c2nn3c(c2C(N)=O)Nc2ccc(N4CCN(CC5CCN(c6ccc(N7CCC(=O)NC7=O)cc6)CC5)CC4)cc2CC3)c1F [Example B84, 7-(4-((1-(4-(2,4-dioxotetrahydropyrimidin-1(2H)-yl)phenyl)piperidin-4-yl)methyl)piperazin-1-yl)-2-(2-fluoro-3-methyl-4-((1-methyl-1H-1,2,4-triazol-3-yl)carbamoyl)phenyl)-9,10-dihydro-4H-benzo[d]pyrazolo[1,5-a][1,3]diazepine-3-carboxamide] | > 10000 nM | 2.32 nM |
| NC(=O)c1c(-c2ccc(Oc3ccccc3)cc2)nn2c1Nc1ccc(NC(=O)C3CCN(c4cccc5c4C(=O)N(C4CCC(=O)NC4=O)C5=O)CC3)cc1CC2 (centres unmarked) [Example A11, 7-(1-(2-(2,6-dioxopiperidin-3-yl)-1,3-dioxoisoindolin-4-yl)piperidine-4-carboxamido)-2-(4-phenoxyphenyl)-9,10-dihydro-4H-benzo[d]pyrazolo[1,5-a][1,3]diazepine-3-carboxamide] | 826 nM | 5.71 nM |
